Key:
[1] = system: CCRF-CEM (acute T-lymphoblastic leukemia); assay: MTS cytotoxicity assay, CCRF-CEM; format: cell-based; details: for IC50: Homo sapiens
Protocol: (§1) All the titled nucleosides 14a–g were tested for their in vitro cytotoxic activity. The following cancer cell lines were used for the study: A549 (lung cancer), CCRF-CEM (acute T-lymphoblastic leukemia), HCT116 and HCT116p53^– (colon carcinoma, parental and p53 deficient), K562 (chronic myelogenous leukemia), and U2OS (bone osteosarcoma) using a colorimetric MTS assay.[25] Additionally, HeLa (cervical cancer), HepG2 (hepatocellular liver carcinoma), and HL60 (acute promyelocytic leukemia) cell lines were tested using the luminescent CellTiter-Glo assay. For comparison, nonmalignant fibroblast cell lines (BJ and MRC-5) were included in the MTS assay, whereas noncancerous human dermal fibroblasts (NHDF) were assessed with the CellTiter-Glo assay.[26] Initial screenings were done at 50 μM concentration for the MTS assay and 10 μM for the CellTiter-Glo assay.
(§2) Unless otherwise stated, all reactions were carried out under an argon atmosphere. An oil bath was used for reactions requiring heating. Thin-layer chromatography (TLC) was performed on Merck silica gel 60 F-254 aluminum sheets. Visualization was obtained by UV light (λmax = 254 or 366 nm). High-performance flash chromatography (HPFC) was conducted with a Combi Flash Rf instrument from Teledyne Isco Inc. using SiO2 (particle size 0.040–0.063 mm, 230–400 mesh) from Fluorochem in refillable flash columns or HP C18 Redi Sep Rfgold flash columns with the solvent gradient indicated in the corresponding procedures. Preparative high-pressure liquid chromatography (prep. HPLC) was performed on a Waters 2535 Quaternary Gradient System with a fraction collector. Melting points (m.p.) were measured by Bohunka Šperlichová at Charles University Prague on a Büchi Melting Point B-545 apparatus using open glass capillaries and are uncorrected. Optical rotation of final nucleosides was measured by the analytical laboratory at IOCB Prague using an AUTOPOL IV automatic polarimeter from Rudolph Research Analytical at 20 °C and 589 nm. The sample concentration c is given in g mL^–1. ^1H and ^13C{^1H} NMR spectra were measured on a Bruker Avance III 500 MHz spectrometer at 25 °C in CDCl3 referenced to the residual solvent signal (δH = 7.26 ppm, δC = 77.16 ppm), in deuterated dimethyl sulfoxide (DMSO-d6) referenced to the residual solvent signal (δH = 2.50 ppm, δC = 39.52 ppm], or in D2O with tBuOH-d10 as the external standard [δH = 1.25 ppm, δC = 31.6 ppm]. ^31P NMR NMR spectra were referenced externally to the signal of H3PO4. Coupling constants (J) are given in Hz, and the multiplets are described as s (singlet), d (doublet), t (triplet), q (quartet), m (multiplet), and b (broad). ^13C{^1H} NMR experiments were broadband proton-decoupled and were performed using APT pulse sequence. DFQ-COSY, HSQC, and HMBC experiments were used to assign the ^1H and ^13C NMR signals where required. ROESY experiments were used to confirm the relative stereochemistry of nucleosides 11 and 12. To simplify the assignment, the benzoyl group attached to the 2′-hydroxy group of the ribofuranose ring was given the letter A, the one attached to the 3′-hydroxy group is considered B, and the benzoyl group at 5′-OH is called C (Figure 3). All spectra can be found in Supporting Information S6. In the ROESY spectra for nucleosides 11, 12-β, and 12-α, the important relations for the determination of the stereochemistry are highlighted. Infrared spectra (IR) were recorded on a Bruker ALPHA FT-IR spectrometer with a single-reflection Platinum ATR module. The compounds were measured in their initial state of appearance at 20 °C, and their absorption bands were reported in wavenumbers (ṽ) in the range between 4000 and 400 cm^–1. Intensities are described as strong (s), medium (m), and weak (w). UV/vis spectra were measured on a Varian Cary 100 Bio UV–visible spectrophotometer in the range 250–800 nm using transparent 1.5 mL quartz cuvettes. Fluorescence spectra were recorded on a Fluoromax 4 spectrofluorimeter from HORIBA Scientific. […]

[2] = system: BJ; assay: MTS cytotoxicity assay, BJ fibroblasts; format: cell-based; details: Homo sapiens; nonmalignant fibroblasts BJ; top concentration 50 μM
Protocol: as §1, §2

[3] = system: K562 (chronic myelogenous leukemia); assay: MTS cytotoxicity assay, K562; format: cell-based; details: Homo sapiens
Protocol: as §1, §2

[4] = system: noncancerous human dermal fibroblasts (NHDF); assay: CellTiter-Glo cytotoxicity assay, NHDF; format: cell-based; details: top concentration 10 μM
Protocol: as §1, §2

[5] = system: HeLa (cervical cancer); assay: CellTiter-Glo cytotoxicity assay, HeLa; format: cell-based; details: Homo sapiens, top concentration 10 μM
Protocol: as §1, §2

[6] = system: HepG2 (hepatocellular liver carcinoma); assay: CellTiter-Glo cytotoxicity assay, HepG2; format: cell-based; details: Homo sapiens, top concentration 10 μM
Protocol: as §1, §2

[7] = system: HCT116p53– (colon carcinoma, p53 deficient); assay: MTS cytotoxicity assay, HCT116p53–; format: cell-based
Protocol: as §1, §2

[8] = system: HL60 (acute promyelocytic leukemia); assay: CellTiter-Glo cytotoxicity assay, HL60; format: cell-based; details: Homo sapiens, HL-60, top concentration 10 μM
Protocol: as §1, §2

[9] = system: U2OS (bone osteosarcoma); assay: MTS cytotoxicity assay, U2OS; format: cell-based; details: Homo sapiens
Protocol: as §1, §2

[10] = system: MRC-5; assay: MTS cytotoxicity assay, MRC-5 fibroblasts; format: cell-based; details: Homo sapiens, MRC5; nonmalignant fibroblasts MRC-5; top concentration 50 μM
Protocol: as §1, §2

[11] = system: A549 (lung cancer); assay: MTS cytotoxicity assay, A549; format: cell-based; details: Homo sapiens
Protocol: as §1, §2

[12] = system: HCT116 (colon carcinoma, parental); assay: MTS cytotoxicity assay, HCT116; format: cell-based; details: Homo sapiens, HCT-116
Protocol: as §1, §2

[13] = system: cancer cell lines and nonmalignant fibroblast cell lines; assay: In vitro cytotoxic activity across the whole cell line panel (MTS and CellTiter-Glo); format: cell-based; details: for cytotoxicity against nonmalignant cell lines BJ, MRC-5, and NHDF (in words): MRC-5, NHDF; for cytotoxic activity across tested cell lines (in words): whole panel of tested cell lines
Protocol: as §1, §2

SMILES: OC[C@H]1O[C@@H](n2c3ccc4ncccc4c3c3c(-c4ccco4)ncnc32)[C@H](O)[C@@H]1O [14a, 11-(Furan-2-yl)-7-(β-D-ribofuranosyl)pyrimido[5′,4′:4,5]pyrrolo[3,2-f]quinoline]
- activity against the CCRF-CEM leukemia line (in words) [1]: weak activity
- IC50 [1]: 38.5 µM
- IC50 [2]: > 50 µM
- IC50 [3]: > 50 µM
- IC50 [4]: > 10 µM
- IC50 [5]: > 10 µM
- IC50 [6]: > 10 µM
- IC50 [7]: > 50 µM
- IC50 [8]: > 10 µM
- IC50 [9]: > 50 µM
- IC50 [10]: > 50 µM
- IC50 [11]: > 50 µM
- IC50 [12]: > 50 µM

SMILES: OC[C@H]1O[C@@H](n2c3ccc4ncccc4c3c3c(-c4cc5ccccc5o4)ncnc32)[C@H](O)[C@@H]1O [14b, 11-(Benzofuran-2-yl)-7-(β-D-ribofuranosyl)pyrimido[5′,4′:4,5]pyrrolo[3,2-f]quinoline]
- activity against the CCRF-CEM leukemia line (in words) [1]: weak activity
- IC50 [1]: 18.6 µM
- IC50 [2]: > 50 µM
- IC50 [3]: > 50 µM
- IC50 [4]: > 10 µM
- IC50 [5]: > 10 µM
- IC50 [6]: 2.8 µM
- IC50 [7]: 43.2 µM
- IC50 [8]: > 10 µM
- IC50 [9]: > 50 µM
- IC50 [10]: > 50 µM
- IC50 [11]: > 50 µM
- melting point: 124 °C
- IC50 [12]: 36 µM

SMILES: Cc1ncnc2c1c1c3cccnc3ccc1n2[C@@H]1O[C@H](CO)[C@@H](O)[C@H]1O [14c, 11-Methyl-7-(β-D-ribofuranosyl)pyrimido[5′,4′:4,5]pyrrolo[3,2-f]quinoline]
- IC50 [1]: 6.5 µM
- IC50 [2]: > 50 µM
- IC50 [3]: 11.9 µM
- IC50 [4]: > 10 µM
- IC50 [5]: > 10 µM
- IC50 [6]: > 10 µM
- IC50 [7]: 17 µM
- IC50 [8]: 6.7 µM
- IC50 [9]: 13.1 µM
- IC50 [10]: > 50 µM
- IC50 [11]: 26.4 µM
- cytotoxicity against nonmalignant cell lines BJ, MRC-5, and NHDF (in words) [13]: no cytotoxicity
- cytotoxic activity across tested cell lines (in words) [13]: moderate cytotoxic activity
- melting point: 256 °C
- IC50 [12]: 17 µM

SMILES: CN(C)c1ncnc2c1c1c3cccnc3ccc1n2[C@@H]1O[C@H](CO)[C@@H](O)[C@H]1O [14d, 11-(N,N-Dimethylamino)-7-(β-D-ribofuranosyl)pyrimido[5′,4′:4,5]pyrrolo[3,2-f]quinoline]
- IC50 [1]: > 50 µM
- IC50 [2]: > 50 µM
- IC50 [3]: > 50 µM
- IC50 [4]: > 10 µM
- IC50 [5]: > 10 µM
- IC50 [6]: > 10 µM
- IC50 [7]: > 50 µM
- IC50 [8]: > 10 µM
- IC50 [9]: > 50 µM
- IC50 [10]: > 50 µM
- IC50 [11]: > 50 µM
- cytotoxic activity across tested cell lines (in words) [13]: did not show any cytotoxicity whatsoever
- melting point: 240 °C
- IC50 [12]: > 50 µM

SMILES: Nc1ncnc2c1c1c3cccnc3ccc1n2[C@@H]1O[C@H](CO)[C@@H](O)[C@H]1O [14e, 11-Amino-7-(β-D-ribofuranosyl)pyrimido[5′,4′:4,5]pyrrolo[3,2-f]quinoline]
- IC50 [1]: 8.5 µM
- IC50 [2]: > 50 µM
- IC50 [3]: 10 µM
- IC50 [4]: > 10 µM
- IC50 [5]: > 10 µM
- IC50 [6]: 8.6 µM
- IC50 [7]: 17.3 µM
- IC50 [8]: 5.2 µM
- IC50 [9]: 17.1 µM
- IC50 [10]: > 50 µM
- IC50 [11]: > 50 µM
- cytotoxicity against nonmalignant cell lines BJ, MRC-5, and NHDF (in words) [13]: no cytotoxicity
- cytotoxic activity across tested cell lines (in words) [13]: moderate cytotoxic activity
- melting point: 210 to 235 °C (dec.)
- IC50 [12]: 18.9 µM

SMILES: COc1ncnc2c1c1c3cccnc3ccc1n2[C@@H]1O[C@H](CO)[C@@H](O)[C@H]1O [14f, 11-Methoxy-7-(β-D-ribofuranosyl)pyrimido[5′,4′:4,5]pyrrolo[3,2-f]quinoline]
- IC50 [1]: 8 µM
- IC50 [2]: > 50 µM
- IC50 [3]: 40.2 µM
- IC50 [4]: > 10 µM
- IC50 [5]: > 10 µM
- IC50 [6]: > 10 µM
- IC50 [7]: 23.1 µM
- IC50 [8]: 5.2 µM
- IC50 [9]: 17.3 µM
- IC50 [10]: > 50 µM
- IC50 [11]: 27.4 µM
- cytotoxicity against nonmalignant cell lines BJ, MRC-5, and NHDF (in words) [13]: no cytotoxicity
- cytotoxic activity across tested cell lines (in words) [13]: moderate cytotoxic activity
- melting point: 190 to 205 °C (dec.)
- IC50 [12]: 9.8 µM

SMILES: CSc1ncnc2c1c1c3cccnc3ccc1n2[C@@H]1O[C@H](CO)[C@@H](O)[C@H]1O [14g, 11-Methylthio-7-(β-D-ribofuranosyl)pyrimido[5′,4′:4,5]pyrrolo[3,2-f]quinoline]
- IC50 [1]: 5.1 µM
- IC50 [2]: 36.8 µM
- IC50 [3]: 18.6 µM
- IC50 [4]: > 10 µM
- IC50 [5]: > 10 µM
- IC50 [6]: > 10 µM
- IC50 [7]: 16.2 µM
- IC50 [8]: 9.3 µM
- IC50 [9]: 15 µM
- IC50 [10]: 36.8 µM
- IC50 [11]: 17 µM
- cytotoxic activity across tested cell lines (in words) [13]: moderate cytotoxic activity
- melting point: 228 to 242 °C (dec.)
- IC50 [12]: 9.3 µM
